According to ChEMBL document CHEMBL4325859, “Research advances on anticancer activities of matrine and its derivatives: An updated overview” (Eur J Med Chem, 2019):
In brackets after ≈: the same amount, converted by molar mass.

Legend:
[1] = test system: UMR108; assay: Growth inhibition of rat UMR108 cells assessed as cell proliferation at 1.5 mg/ml after 24 hrs by MTT assay (reference value: 0.405 +/- 0.007%); format: functional; conditions: UMR108, 24 h, read-out: Activity
[2] = Antiproliferative activity against human 95-D cells at 1.5 g/L after 12 to 48 hrs by MTT assay relative to control; format: functional
[3] = test system: LoVo; assay: Antiproliferative activity against human LoVo cells after 48 hrs by MTT assay; format: functional, cell-based
[4] = test system: K562; assay: Antiproliferative activity against human K562 cells after 72 hrs by MTT assay; format: functional, cell-based; conditions: K562, 72 h
[5] = test system: HT-29; assay: Growth inhibition of human HT-29 cells at 16 mg/ml after 48 hrs by MTT assay relative to control; format: functional; conditions: HT-29, 48 h, read-out: GI
[6] = test system: KYSE-150 cell line; assay: Antiproliferative activity against human KYSE-150 cells assessed as cell viability at 1.5 mg/ml after 24 hrs by MTT assay relative to control; format: functional; conditions: KYSE-150, 24 h, read-out: Activity
[7] = test system: HT-29; assay: Antiproliferative activity against human HT-29 cells by MTT assay; format: functional, cell-based
[8] = test system: PC-3; assay: Induction of apoptosis in human PC3 cells assessed as late apoptotic cells at 25 mg/mL (reference value: 2.5%); format: functional
[9] = test system: HT-29; assay: Growth inhibition of human HT-29 cells at 2 ml/L after 24 hrs by MTT assay relative to control; format: functional
[10] = test system: KYSE-150 cell line; assay: Antiproliferative activity against human KYSE-150 cells assessed as cell viability at 3 mg/ml after 24 hrs by MTT assay relative to control; format: functional; conditions: KYSE-150, 24 h, read-out: Activity
[11] = test system: RPMI-8226; assay: Growth inhibition of human RPMI8226 cells at 1500 mg/L after 48 hrs by MTT assay relative to control; format: functional; conditions: RPMI-8226, 48 h, read-out: GI
[12] = test system: PC-3; assay: Induction of apoptosis in human PC3 cells assessed as late apoptotic cells at […] (reference value: 2.5%); format: functional
[13] = test system: A549; assay: Antiproliferative activity against human A549 cells at 2 g/L after 48 hrs by MTT assay relative to control; format: functional
[14] = test system: MG-63; assay: Growth inhibition of human MG63 cells at 3.2 mg/ml after 48 hrs by MTT assay relative to control; format: functional; conditions: MG-63, 48 h, read-out: GI
[15] = Growth inhibition of human GRC1 cells at 0.3 g/L after 96 hrs by MTT assay relative to control; format: functional; conditions: read-out: GI
[16] = test system: MCF7; assay: Antiproliferative activity against human MCF7 cells after 48 hrs by MTT assay; format: functional, cell-based; conditions: MCF7, 48 h
[17] = test system: CCRF-CEM; assay: Antiproliferative activity against human CCRF-CEM cells after 48 hrs by WST1 assay; format: functional, cell-based
[18] = test system: DLD-1; assay: Growth inhibition of human DLD1 cells after 24 hrs by MTT assay; format: functional, cell-based; conditions: DLD-1, 24 h
[19] = Growth inhibition of human GRC1 cells at 0.5 g/L after 48 hrs by MTT assay relative to control; format: functional; conditions: read-out: GI
[20] = test system: BXPC-3; assay: Induction of apoptosis in human BxPC3 cells at 1.25 mg/ml by flow cytometry (reference value: 2.81%); format: functional
[21] = Growth inhibition of human GRC1 cells at 0.3 g/L after 48 hrs by MTT assay relative to control; format: functional; conditions: read-out: GI
[22] = test system: HT-29; assay: Growth inhibition of human HT-29 cells after 24 hrs by MTT assay; format: functional, cell-based; conditions: HT-29, 24 h
[23] = test system: HepG2; assay: Induction of apoptosis in human HepG2 cells at 1 mg/ml by Annexin V-FITC/propidium iodide staining based flow cytometry (reference value: 0.14%); format: functional
[24] = test system: RD; assay: Induction of apoptosis in human RD cells at 1.5 mg/ml after 24 hrs by Annexin V-FITC/propidium iodide staining based flow cytometry relative to control; format: functional
[25] = test system: U-266; assay: Antiproliferative activity against human U266 cells after 24 hrs by MTT assay; format: functional, cell-based; conditions: U-266, 24 h
[26] = test system: LoVo; assay: Antiproliferative activity against human LoVo cells after 24 hrs by MTT assay; format: functional, cell-based
[27] = test system: HepG2; assay: Induction of apoptosis in human HepG2 cells at 0.5 mg/ml by Annexin V-FITC/propidium iodide staining based flow cytometry (reference value: 0.14%); format: functional
[28] = test system: HepG2; assay: Induction of apoptosis in human HepG2 cells at 2 mg/ml by Annexin V-FITC/propidium iodide staining based flow cytometry (reference value: 0.14%); format: functional
[29] = test system: SAOS-2; assay: Growth inhibition of human Saos2 cells at 3.2 mg/ml after 48 hrs by MTT assay relative to control; format: functional; conditions: SAOS-2, 48 h, read-out: GI
[30] = Antiproliferative activity against human GBC-SD cells after 24 hrs by MTT assay; format: functional, cell-based
[31] = test system: RPMI-8226; assay: Induction of apoptosis in human RPMI8226 cells at 500 mg/L after 48 hrs by Annexin V/propidium iodide staining based flow cytometry (reference value: 3.02 +/- 1.19%); format: functional
[32] = test system: HT-29; assay: Growth inhibition of human HT-29 cells at 0.5 mg/ml by MTT assay relative to control; format: functional; conditions: read-out: GI
[33] = Antiproliferative activity against human GBC-SD cells after 48 hrs by MTT assay; format: functional, cell-based
[34] = test system: CCRF-CEM; assay: Induction of apoptosis in human CCRF-CEM cells at antiproliferative IC50 after 72 hrs by Annexin V/propidium iodide staining based assay (reference value: 0.8%); format: functional
[35] = test system: UMR108; assay: Growth inhibition of rat UMR108 cells assessed as cell proliferation at 1.5 mg/ml after 72 hrs by MTT assay (reference value: 0.403 +/- 0.009%); format: functional; conditions: UMR108, 72 h, read-out: Activity
[36] = test system: RPMI-8226; assay: Induction of apoptosis in human RPMI8226 cells at 1.5 g/L after 48 hrs by Annexin V-FITC/propidium iodide staining based flow cytometry (Rvb < 3%); format: functional
[37] = Growth inhibition of human GRC1 cells at 1.5 g/L after 72 hrs by MTT assay relative to control; format: functional; conditions: read-out: GI
[38] = test system: D341 cell line; assay: Growth inhibition of human D341 cells at 2 mg/ml after 24 hrs by CCK8 assay relative to control; format: functional; conditions: D341, 24 h, read-out: GI
[39] = test system: SGC-7901; assay: Induction of apoptosis in human SGC7901 cells at 60 mg/ml after 48 hrs by propidium iodide staining based flow cytometry (reference value: 3.54 +/- 0.47%); format: functional
[40] = test system: CCRF-CEM; assay: Antiproliferative activity against human CCRF-CEM cells after 24 hrs by WST1 assay; format: functional, cell-based
[41] = Growth inhibition of human GRC1 cells at 0.8 g/L after 48 hrs by MTT assay relative to control; format: functional; conditions: read-out: GI
[42] = test system: HepG2; assay: Antiproliferative activity against human HepG2 cells at 0.8 mg/ml after 48 hrs relative to control; format: functional
[43] = test system: RPMI-8226; assay: Growth inhibition of human RPMI8226 cells at 1000 mg/L after 48 hrs by MTT assay relative to control; format: functional; conditions: RPMI-8226, 48 h, read-out: GI
[44] = test system: MCF7; assay: Antiproliferative activity against human MCF7 cells after 24 hrs relative to control; format: functional
[45] = test system: T-24; assay: Antiproliferative activity against human T24 cells after 48 hrs by CCK8 assay; format: functional, cell-based; conditions: T-24, 48 h

`O=C1CCC[C@@H]2[C@H]3CCCN4CCC[C@@H](CN12)[C@@H]34` [MATRINE] showed a growth at 1500 µg/mL [1] of 0.245%, an Activity [2] of 30% and an IC50 [3] of 2.97 mM. For the same compound, the IC50 [4] was 1.77 mM, the inhibition of growth at 16000 µg/mL [5] was 75.8% and the viability at 1500 µg/mL [6] was 64%. For the same compound, the IC50 [7] was 0.0286 mM, the Activity [8] was 14.6% and the “growth inhibition (GI)” value [9] was 9.2%. For the same compound, the viability at 3000 µg/mL [10] was 29.6%, the inhibition of growth at 1500 µg/mL [11] was 39.4% and the Activity [12] was 20.5%. The Activity [13] was 20%, the inhibition of growth at 3200 µg/mL [14] was 86% and the inhibition of growth at 300 µg/mL [15] was 18.4%. The IC50 [16] was 721 µg/mL (≈ 2.9 mM), the IC50 [17] was 9.67 mM and the IC50 [18] was 6.32 mM. The inhibition of growth at 500 µg/mL [19] was 12.3%, the Activity [20] was 33.67% and the inhibition of growth at 300 µg/mL [21] was 8.8%. The IC50 [22] was 6.32 to 50.3 mM, the Activity [23] was 34.36% and the Activity [24] was 40.1%. It also gave an IC50 [25] of 2180 µg/mL (≈ 8.78 mM), an IC50 [26] of 4.63 mM and an Activity [27] of 28.91%. It also gave an Activity [28] of 38.8%, an inhibition of growth at 3200 µg/mL [29] of 70% and an IC50 [30] of 3.6 mM. The Activity [31] was 9.75%, the inhibition of growth at 500 µg/mL [32] was 26.9% and the IC50 [33] was 2 mM. It also gave an Activity [34] of 5.4%, a growth at 1500 µg/mL [35] of 0.147% and an Activity [36] of 32.89%. It also gave an inhibition of growth at 1500 µg/mL [37] of 34%, an inhibition of growth at 2000 µg/mL [38] of 38% and an Activity [39] of 22.34%. The IC50 [40] was 11.7 mM, the inhibition of growth at 800 µg/mL [41] was 23.1% and the Activity [42] was 44.03%. The inhibition of growth at 1000 µg/mL [43] was 30.4%, the Activity [44] was 6.01 - 37.01% and the IC50 [45] was 4.6 mM.
